Laboratory results as given in patent US20210330611A1, “THERAPY FOR NEUROLOGICAL DISEASES/DISORDERS” (priority 2020, published 2021).
Values joined by “and” are separate entries in the source; they are usually repeats but may differ in a detail not shown here. Identical values can stand only once. Counter-ions that a name gives are not always drawn. Like-named read-outs stand apart in the source and are kept apart here.

Columns and labels:
[1] = test system: fibrin-induced microglia activation; experiment: Image-based assay of fibrin-induced microglia activation (HTS and dose response); type: cell-based, rat; conditions: for Fibrin % inhibition / inhibition at 10 µM: primary microglia HTS, fibrin stimulation; for inhibition at 10 µM: Rattus norvegicus, Microglia, read-out: Fibrin % inhibition
[2] = test system: primary rat microglia; experiment: Cell toxicity (dead cells, size <150 μm2) in coated fibrin (cFib) assay; conditions: for IC50: read-out: Cell Toxicity IC50 (uM) [cFib assay];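 for Fibrin % cell toxicity: share of dead cells sized under 150 µm2 at 10 µM in fibrin-stimulated microglia HTS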
[3] = test system: primary rat microglia; experiment: Cell toxicity (dead cells, size <150 μm2) in LPS assay; conditions: for IC50: read-out: Cell Toxicity IC50 (uM) [LPS assay]
[4] = test system: LPS-induced microglia activation; experiment: Image-based assay of LPS-induced microglia activation (HTS and dose response); type: cell-based, rat; conditions: for inhibition at 10 µM: Rattus norvegicus, Microglia, read-out: LPS % inhibition
[5] = test system: fibrin- and LPS-induced microglia activation; experiment: cells; type: cell-based, rat; conditions: for Hit: HTS hit classification
[6] = Table 1, dose response 0.001-20 μM, triplicates, primary rat microglia, 48 h, read-out: Fibrin IC50
[7] = Table 3, read-out: Fibrin IC50 (uM) (Suppl. Table 7)
[8] = dose response, fibrin-induced microglia activation, read-out: Fibrin IC50
[9] = fibrin-induced microglia activation, dose response, read-out: Fibrin IC50 (uM) (Suppl. Table 7)
[10] = increased cell size (>800 μm^2) as marker of activation
[11] = primary microglia HTS, fibrin stimulation, decreased size (<150 μm^2) as marker of toxicity
[12] = primary microglia HTS, LPS stimulation, decreased size (<150 μm^2) as marker of toxicity
[13] = LPS-induced microglia activation, dose response, read-out: LPS IC50 (uM) (Suppl. Table 7)
[14] = Table 1, dose response 0.001-20 μM, triplicates, primary rat microglia, 48 h, read-out: LPS IC50
[15] = Table 3, read-out: LPS IC50 (uM) (Suppl. Table 7)
[16] = dose response, LPS-induced microglia activation, read-out: LPS IC50
[17] = primary microglia HTS, LPS stimulation, increased cell size (>800 μm^2) as marker of activation
[18] = HTS of 1907 compounds, quadrant by fibrin and LPS inhibition
[19] = hit classification in microglia HTS
[20] = quadrant by fibrin and LPS inhibition in HTS of 1907 compounds
[21] = 48 h, primary microglia HTS, LPS stimulation, increased cell size (>800 μm^2) as marker of activation

## CCC(=O)OCC(=O)[C@@]1(OC(=O)CC)[C@H](C)C[C@H]2[C@H]3[C@H]([C@@H](O)C[C@@]21C)[C@@]1(C)C=CC(=O)C=C1C[C@H]3Cl [Alclometazone dipropionate, reference compound]
[1]
  Fibrin Selectivity (LOG10): 3.33
[1]; [6]
  IC50: < 0.001 µM
[1]; [7]
  IC50: < 0.001 µM
[1]; Table 6, read-out: Fibrin IC50 (uM) (Suppl. Table 7)
  IC50: < 0.001 µM
[1]; [8]
  IC50: < 0.001 µM
[1]; fibrin vs LPS, LOG10, Table 6
  Fibrin Selectivity (LOG10): 3.33
[1]; fibrin vs LPS, Table 6
  Fibrin Selectivity: 2153
[1]; [9]
  IC50: < 0.001 µM
[1]; listed as Alclometazone Dipropion
  Fibrin Selectivity: ≥ 2153
[1]; listed as Alclometazone Dipropionate
  Fibrin Selectivity: 2153
[1]; [10]
  Fibrin % inhibition: 105%
[2]; [11]
  Fibrin % cell toxicity: 2%
[2]; Table 3
  IC50: > 20 µM
[2]; cFib assay
  IC50: > 20 µM
[2]; cFib assay, Table 6
  IC50: > 20 µM
[3]; [12]
  LPS % cell toxicity: 2%
[3]; LPS assay
  IC50: > 20 µM
[3]; LPS assay, Table 6
  IC50: > 20 µM
[3]; Table 3
  IC50: > 20 µM
[4]; [13]
  IC50: 2 µM
[4]; [14]
  IC50: 2 µM
[4]; [15]
  IC50: 2 µM
[4]; Table 6, read-out: LPS IC50 (uM) (Suppl. Table 7)
  IC50: 2 µM
[4]; [16]
  IC50: 2 µM
[4]; [17]
  LPS % inhibition: 82%
[5]
  Hit: HIT (Hits were defined as molecules that exhibited greater than 50% inhibition of either fibrin or LPS activation)
[5]; [18]
  Quadrant (FIG. 5b): Q2
[5]; Table 1, screen at 10 μM
  Quadrant (FIG. 5b): Q2
[5]; Table 3
  Cherry-picked Hit (Suppl. Table 7): HIT (Hits were defined as molecules that exhibited greater than 50% inhibition of either fibrin or LPS activation)
[5]; Table 3, screen at 10 μM
  Quadrant (FIG. 5b): Q2
[5]; [19]
  Cherry-picked Hit (Suppl. Table 7): HIT (Hits were defined as molecules that exhibited greater than 50% inhibition of either fibrin or LPS activation)
[5]; microglia HTS, Table 6
  Cherry-picked Hit (Suppl. Table 7): HIT (Hits were defined as molecules that exhibited greater than 50% inhibition of either fibrin or LPS activation)
  Quadrant (FIG. 5b): Q2
[5]; [20]
  Quadrant (FIG. 5b): Q2

## CCCCC(CC)CNC(=N)NC(=N)NCCCCCCNC(=N)NC(=N)NCC(CC)CCCC (centres unmarked) [Alexidine Hydrochloride]
[1]; [10]
  inhibition at 10 µM: 108%
[2]; [11]
  Fibrin % cell toxicity: 5%
[3]; [12]
  LPS % cell toxicity: 9%
[4]; [21]
  inhibition at 10 µM: 120%
[5]; [20]
  Quadrant (FIG. 5b): Q2

## CC(=O)[C@@]12O[C@](C)(c3ccccc3)O[C@@H]1C[C@H]1[C@@H]3CCC4=CC(=O)CC[C@]4(C)[C@H]3CC[C@@]12C [Algestone acetophenide, reference compound]
[1]
  Fibrin Selectivity: 9
  Fibrin Selectivity (LOG10): 0.95
[1]; [6]
  IC50: 1 µM
[1]; [7]
  IC50: 1 µM
[1]; [8]
  IC50: 1 µM
[1]; [9]
  IC50: 1 µM
[1]; [10]
  Fibrin % inhibition: 62%
[2]; [11]
  Fibrin % cell toxicity: 1%
[2]; Table 3
  IC50: > 20 µM
[2]; cFib assay
  IC50: > 20 µM
[3]; [12]
  LPS % cell toxicity: 2%
[3]; LPS assay
  IC50: > 20 µM
[3]; Table 3
  IC50: > 20 µM
[4]; [13]
  IC50: 9 µM
[4]; [14]
  IC50: 9 µM
[4]; [15]
  IC50: 9 µM
[4]; [16]
  IC50: 9 µM
[4]; [17]
  LPS % inhibition: 61%
[5]
  Hit: HIT (Hits were defined as molecules that exhibited greater than 50% inhibition of either fibrin or LPS activation)
[5]; [18]
  Quadrant (FIG. 5b): Q2
[5]; Table 1, screen at 10 μM
  Quadrant (FIG. 5b): Q2
[5]; Table 3
  Cherry-picked Hit (Suppl. Table 7): HIT (Hits were defined as molecules that exhibited greater than 50% inhibition of either fibrin or LPS activation)
[5]; Table 3, screen at 10 μM
  Quadrant (FIG. 5b): Q2
[5]; [19]
  Cherry-picked Hit (Suppl. Table 7): HIT (Hits were defined as molecules that exhibited greater than 50% inhibition of either fibrin or LPS activation)
[5]; [20]
  Quadrant (FIG. 5b): Q2

## CCCCC[C@H](O)/C=C/[C@H]1[C@H](O)CC(=O)[C@@H]1CCCCCCC(=O)O [Alprostadil]
[1]; [10]
  inhibition at 10 µM: 100%
[2]; [11]
  Fibrin % cell toxicity: 9%
[3]; [12]
  LPS % cell toxicity: 3%
[4]; [21]
  inhibition at 10 µM: 87%
[5]; [20]
  Quadrant (FIG. 5b): Q2

## CC(=O)OCC(=O)[C@@]12OC3(CCCC3)O[C@@H]1C[C@H]1[C@@H]3CCC4=CC(=O)C=C[C@]4(C)[C@@]3(F)[C@@H](O)C[C@@]12C [Amcinonide]
[1]; [10]
  inhibition at 10 µM: 112%
[2]; [11]
  Fibrin % cell toxicity: 7%
[3]; [12]
  LPS % cell toxicity: 6%
[4]; [21]
  inhibition at 10 µM: 119%
[5]; [20]
  Quadrant (FIG. 5b): Q2

## OC[C@H]1O[C@@H](n2cnc3c(O)ncnc32)[C@H](O)[C@@H]1O [Inosine]
[1]; activation = cell size >800 μm2
  inhibition at 10 µM: -31%
[1]; [10]
  inhibition at 10 µM: 111%
[2]; primary microglia HTS, fibrin stimulation, toxicity = cell size <150 μm2
  Fibrin % cell toxicity: 1%
[2]; [11]
  Fibrin % cell toxicity: 7%
[3]; primary microglia HTS, LPS stimulation, toxicity = cell size <150 μm2
  LPS % cell toxicity: 0%
[3]; [12]
  LPS % cell toxicity: 2%
[4]; 48 h, primary microglia HTS, LPS stimulation, activation = cell size >800 μm2
  inhibition at 10 µM: -11%
[4]; [21]
  inhibition at 10 µM: 115%

## CCC(Cc1c(I)cc(I)c(N)c1I)C(=O)O (centres unmarked) [lopanic Acid]
[2]; cFib assay
  IC50: > 20 µM
[3]; LPS assay
  IC50: > 20 µM
[4]; [13]
  IC50: > 20 µM
[5]; [18]
  Quadrant (FIG. 5b): Q3
[5]; [19]
  Cherry-picked Hit (Suppl. Table 7): HIT (Hits were defined as molecules that exhibited greater than 50% inhibition of either fibrin or LPS activation)

## Benzalkonium Chloride
[2]; [11]
  Fibrin % cell toxicity: 71%
[3]; [12]
  LPS % cell toxicity: 31%
[4]; [17]
  LPS % inhibition: 122%
[5]; [20]
  Quadrant (FIG. 5b): Q2

## Carboplatin
[2]; primary HTS, 10 μM, fibrin assay, dead cells size <150 μm2
  Fibrin % cell toxicity: 1%
[3]; primary HTS, 10 μM, LPS assay, dead cells size <150 μm2
  LPS % cell toxicity: 0%
[4]; primary HTS, 10 μM, LPS-stimulated primary microglia
  LPS % inhibition: 4% and 7%
[5]; primary HTS, 10 μM
  Quadrant (FIG. 5b): Q4
